Key:
GLUT-4 = GLUT-4 translocation (membrane fraction ELISA); format: cell-based, Human; conditions: HSKMC cells, 2 hrs, FIG. 8
Experimental: […] Upon completion of treatment, cell membrane proteins were collected. Briefly, cells were harvested from the wells with a cell scraper and centrifuged at 300×g for 5 min. The cell pellet was washed with 300 ul of cell wash solution and then re centrifuged at 300×g for 5 min. The supernatant was discarded and the cells resuspended in 1.5 ml of cell wash solution and transferred to a 2 ml centrifuge tube. The cells were then centrifuged at 300×g for 5 min and the supernatant discarded. 150 ul of permeabilization buffer was added to the cell pellet and vortexed briefly to obtain a homogenous cell suspension. The suspension was then incubated at 4° C. for 10 min with constant mixing. […] The supernatant containing solubilized membrane and membrane associated proteins fractions was transferred to a new tube and stored at −80° C. until ready for assessment.
GLUT-4 was assessed in the cell membrane fractions using a sandwich ELISA from LSBio. […] 50 ul of stop solution was added to each well and the optical density of the sample was determined using a microplate reader set to 450 nm. GLUT-4 concentration in the samples was calculated off the standard curve after generating a four-parameter logistic (4-PL) curve fit. Sample concentration read of the curve was then adjusted by multiplying the results by the dilution factor.

HSkMC cells = experiment: QPCR on specific genes of interest; format: cell-based; conditions: 0.5 ug/ml, normalised by B2M, over control
Experimental: A volume of 2 ml of HSkMC cells were seeded in a 6 cm plate, pre-coated with collagen, at a concentration of 2×10^5 cells. Cells were allowed to adhere overnight at 37° C. 5% CO2 and the following day the growth media was replaced with 2 ml of cell differentiation media and returned to the incubator at 37° C. 5% CO2. The cell differentiation media was changed every 2 days for a period of 6 days, until the HSkMC cells were fully differentiated into myotubes. On day 7, the cell differentiation media was replaced with 2 ml of basal media and starved overnight at 37° C. 5% CO2.
On the day of the experiment, the starvation media was removed and replaced with 2 ml of basal media containing 0.5 ug/ml of SEQUENCE ID NO: 1. Untreated cells were run in parallel. The cells were incubated in this treatment for a period of 20 min at 37° C. 5% CO2, at which point the treatment media was removed and the cells were scraped in 1 ml of PBS. The cell suspension was pelleted in a microcentrifuge at 1500 rpm for 5 min, and the supernatant was removed. The cells were immediately flash frozen in liquid nitrogen and transferred to a −80° C. freezer for storage until dispatched to CROs.
Quantitative PCR was performed using a TaqMan probe based method, where target mRNA expression was quantified relative to the expression of the B2M housekeeping gene. A master mix containing primer/probe and Taqman® Gene Expression Master Mix (ABI Biosystems, CA, USA) was added to 1 μl of cDNA template. A final volume of 10 μl was pipetted into a well of a 96-well Lightcycler plate (Sarstedt, Nümbrecht, Germany) in duplicate and real time PCR was performed on a Roche Lightcycler 96 (Roche Diagnostics, Basal, Switzerland) real time thermal cycler. The threshold cycle (Ct) for each well was calculated using the instrument software. Data analysis was based on the ΔΔCt method with raw data normalised by the B2M housekeeping gene included on the plate. Results are expressed as fold change over control.
QPCR results (methods of treatment remains the same; concentration of SEQ ID 1 remains 0.5 ug/ml)

HACAT cells = experiment: Cell proliferation assay (BrDu), HACAT; format: cell-based; conditions: compared with untreated control, FIG. 2
Experimental: BrDu is incorporated into newly synthesised DNA strands of actively proliferating cells. Following partial denaturation of double stranded DNA, BrDu is detected immunochemically allowing the assessment of the population of cells which are synthesizing DNA.
Following the initial 24 h incubation the cells were incubated with 5 μg/ml, 0.5 μg/ml or 0.05 μg/ml synthetic peptide for 24 h respectively.
After 18 h incubation with synthetic peptides 20 μl BrDu reagent was added to each well. At 24 h incubation the cells were fixed and the amount of […] was measured using the BrdU Cell Proliferation Assay, all steps were carried out according to the manufacturer's instructions.
This experiment was then repeated using HACAT cells.

WKDEAGKPLVK [SEQ ID NO. 1]
GLUT4 translocation (GLUT-4; 0.05 ug/ml): increase
GLUT4 translocation (GLUT-4; 5 ug/ml): increase
Fold change (HSkMC cells; ACVR2B): 0.48 fold
Fold change (HSkMC cells; Adiponectin): 1.07 fold
Fold change (HSkMC cells; COX4I1): 0.85 fold
Fold change (HSkMC cells; FBXO32): 1.00 fold
Fold change (HSkMC cells; GLUT4): 1.95 fold
Fold change (HSkMC cells; HSPA2): 0.67 fold
Fold change (HSkMC cells; LEPR): 1.20 fold
Fold change (HSkMC cells; Leptin): 0.51 fold
Fold change (HSkMC cells; MSTN): 0.17 fold
Fold change (HSkMC cells; MYOG): 0.70 fold
Fold change (HSkMC cells; NRF1): 0.54 fold
Fold change (HSkMC cells; PPARGC1A): 0.69 fold
Fold change (HSkMC cells; PRKAG3): 0.35 fold
Fold change (HSkMC cells; SIRT): 0.41 fold
Fold change (HSkMC cells; TRIM63): 0.70 fold
Fold change (HSkMC cells; UQCRB): 2.56 fold
cell proliferation (HACAT cells): increase
